In assay [1] the test system is acute myelocytic leukemia (AML) cell line MV4-11. In words: Oncology cell growth assay (3-day proliferation, CellTiter-Glo). The format is cell-based. The following applies: Homo sapiens, MV4-11, 72 h, MV4-11 cells, 3000 cells/well, compounds listed under IC50 range headings, read-out: MV411 IC50 (gIC50, inhibition of proliferation). Put shortly: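 A 3-day proliferation test used MV4-11 cells seeded at 3000 per well with eight compound concentrations (10 μM top, 3-fold dilution) at 37° C in 5% CO2. CellTiter-Glo luminescence defined viable cell signal. A four-parameter logistic curve against DMSO and background wells gave the gIC50.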

Assay [2] concerns the target T1, BRD4 Bromodomain 1 (BRD4 BD1) (Homo sapiens, UniProt O60885).
T1 construct: 44-168 and BRD4 BD2
The assay can be described thus: AlphaScreen binding assay, BRD4 BD1. The following applies: His-tagged BRD4 BD1 50 nM, biotinylated H4 (1-21) K5/8/12/16 tetra-acetylated peptide 50 nM, compounds listed under IC50 range headings. The method in brief: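 An AlphaScreen competition format was used with His-BRD4 BD1 or BD2 and biotin-H4 K5/8/12/16-acetyl peptide, each at matched final levels of 50 nM (BD1) or 100 nM (BD2). Incubation in HEPES/NaCl buffer with 0.1% BSA and 0.01% Triton X-100 ran ≥1 h before IC50 determination.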
A general note: Bead proximity is the source of the signal in Alpha formats.

Each structure is given as a SMILES string. A value given as a limit tells only on which side of the number the result lay.

For the molecule `C[C@H]1CCc2c(ccc(-c3cnn(C4CCNCC4)c3)c2Oc2cccc(F)c2F)N1C(=O)C1CC1` [I-267, (S)-cyclopropyl(5-(2,3-difluorophenoxy)-2-methyl-6-(1-(piperidin-4-yl)-1H-pyrazol-4-yl)-3,4-dihydroquinolin-1(2H)-yl)methanone], the IC50 in assay [1] is under 0.5 µM; in assay [2], 0.1 to 1 µM.
For `COC(=O)N1c2ccc(-c3cnn(C4CCNCC4)c3)c(Oc3cccc(F)c3F)c2CC[C@@H]1C` [I-269, (S)-methyl 5-(2,3-difluorophenoxy)-2-methyl-6-(1-(piperidin-4-yl)-1H-pyrazol-4-yl)-3,4-dihydroquinoline-1(2H)-carboxylate] the same measures were under 0.5 µM and 0.1 to 1 µM.
For `COC(=O)N1c2ccc(-c3cnn(C4CNC4)c3)c(Oc3cc(F)ccc3F)c2CC[C@@H]1C` [I-271, (S)-methyl 6-(1-(azetidin-3-yl)-1H-pyrazol-4-yl)-5-(2,5-difluorophenoxy)-2-methyl-3,4-dihydroquinoline-1(2H)-carboxylate] the same measures were under 0.5 µM and 0.1 to 1 µM.
The like results for `C[C@H]1CCc2c(ccc(-c3cnn(C4CNC4)c3)c2Oc2cc(F)ccc2F)N1C(=O)C1CC1` [I-272, (S)-(6-(1-(azetidin-3-yl)-1H-pyrazol-4-yl)-5-(2,5-difluorophenoxy)-2-methyl-3,4-dihydroquinolin-1(2H)-yl)(cyclopropyl)methanone] were, in that order, under 0.5 µM and 0.1 to 1 µM.
As for `COC(=O)N1c2ccc(-c3cnn(C4CCNCC4)c3)c(Oc3cc(F)ccc3F)c2CC[C@@H]1C` [I-273, (S)-methyl 5-(2,5-difluorophenoxy)-2-methyl-6-(1-(piperidin-4-yl)-1H-pyrazol-4-yl)-3,4-dihydroquinoline-1(2H)-carboxylate], the IC50 in assay [1] is under 0.5 µM; in assay [2], 0.1 to 1 µM.
The like results for `C[C@H]1CCc2c(ccc(-c3cnn(C4CCNCC4)c3)c2Oc2cc(F)ccc2F)N1C(=O)C1CC1` [I-274, (S)-cyclopropyl(5-(2,5-difluorophenoxy)-2-methyl-6-(1-(piperidin-4-yl)-1H-pyrazol-4-yl)-3,4-dihydroquinolin-1 (2H)-yl)methanone] were, in that order, under 0.5 µM and 0.1 to 1 µM.
For the molecule `CC(=O)N1c2ccc(-c3cnn(C4CCNCC4)c3)c(Oc3ccc(F)c(F)c3)c2CC[C@@H]1C` [I-275, (S)-1-(5-(3,4-difluorophenoxy)-2-methyl-6-(1-(piperidin-4-yl)-1H-pyrazol-4-yl)-3,4-dihydroquinolin-1 (2H)-yl)ethanone], the IC50 was under 0.5 µM in assay [1] and 0.1 to 1 µM in assay [2].
For `CC(=O)N1c2ccc(-c3cnn(C4CCNCC4)c3)c(Oc3cc(F)ccc3F)c2CC[C@@H]1C` [I-276, (S)-1-(5-(2,5-difluorophenoxy)-2-methyl-6-(1-(piperidin-4-yl)-1H-pyrazol-4-yl)-3,4-dihydroquinolin-1(2H)-yl)ethanone] the same measures were under 0.5 µM and 0.1 to 1 µM.
The like results for `C[C@H]1CCc2c(ccc(-c3cnn4c3NCC4)c2OC2CCC2)N1C(=O)C1CC1` [I-278, ((2S)-5-cyclobutoxy-6-(2,3-dihydro-1H-pyrazolo[1,5-a]imidazol-7-yl)-2-methyl-3,4-dihydroquinolin-1(2H)-yl)(cyclopropyl)methanone] were, in that order, under 0.5 µM and 0.1 to 1 µM.
The like results for `C[C@H]1CCc2c(ccc(-c3cnn4c3N(S(C)(=O)=O)CC4)c2OC2CCC2)N1C(=O)C1CC1` [I-279, ((2S)-5-cyclobutoxy-2-methyl-6-(1-(methylsulfonyl)-2,3-dihydro-1H-pyrazolo[1,5-a]imidazol-7-yl)-3,4-dihydroquinolin-1 (2H)-yl)(cyclopropyl)methanone] were, in that order, over 1 µM and 1 to 10 µM.
With `COC(=O)N1c2ccc(-c3csc(C4(O)CCNCC4)n3)c(OC3CCC3)c2CC[C@@H]1C` [I-280, methyl (S)-5-cyclobutoxy-6-(2-(4-hydroxypiperidin-4-yl)thiazol-4-yl)-2-methyl-3,4-dihydroquinoline-1(2H)-carboxylate], the IC50 in assay [1] was under 0.5 µM; in assay [2], 1 to 10 µM.
On to `COC(=O)N1c2ccc(-c3csc(C4(F)CCNCC4)n3)c(OC3CCC3)c2CC[C@@H]1C` [I-281, methyl (S)-5-cyclobutoxy-6-(2-(4-fluoropiperidin-4-yl)thiazol-4-yl)-2-methyl-3,4-dihydroquinoline-1(2H)-carboxylate], for which the results for the IC50 in assay [1] and in assay [2] were 0.5 to 1 µM and 0.1 to 1 µM, respectively.
For `COC(=O)N1c2ccc(-c3cnn(C4CCNCC4OC)c3)c(OC3CCC3)c2CC[C@@H]1C` (stereo partly drawn) [I-290, (2S)-methyl 5-cyclobutoxy-6-(1-(3-methoxypiperidin-4-yl)-1H-pyrazol-4-yl)-2-methyl-3,4-dihydroquinoline-1(2H)-carboxylate] the same measures were under 0.5 µM and 0.1 to 1 µM.
For `COC(=O)N1c2ccc(-c3cnn(C4CCNCC4OC)c3)c(Oc3ccc(F)cc3)c2CC[C@@H]1C` (stereo partly drawn) [I-291, (2S)-methyl 5-(4-fluorophenoxy)-6-(1-(3-methoxypiperidin-4-yl)-1H-pyrazol-4-yl)-2-methyl-3,4-dihydroquinoline-1(2H)-carboxylate], the results for the IC50 in assay [1] and in assay [2] were under 0.5 µM and 0.1 to 1 µM, respectively.
For `COC(=O)N1c2ccc(-c3cnn(C4CCN(C)CC4OC)c3)c(OC3CCC3)c2CC[C@@H]1C` (stereo partly drawn) [I-292, (2S)-methyl 5-cyclobutoxy-6-(1-(3-methoxy-1-methylpiperidin-4-yl)-1H-pyrazol-4-yl)-2-methyl-3,4-dihydroquinoline-1 (2H)-carboxylate] the same measures were under 0.5 µM and 0.1 to 1 µM.
In the case of `COC(=O)N1c2ccc(-c3cnn(C4CCN(C)CC4OC)c3)c(Oc3ccc(F)cc3)c2CC[C@@H]1C` (stereo partly drawn) [I-293, (2S)-methyl 5-(4-fluorophenoxy)-6-(1-(3-methoxy-1-methylpiperidin-4-yl)-1H-pyrazol-4-yl)-2-methyl-3,4-dihydroquinoline-1(2H)-carboxylate], the IC50 in assay [1] is under 0.5 µM; in assay [2], 0.1 to 1 µM.
As to `C[C@H]1CCc2c(ccc(-c3cnn(C4CCCS(=O)(=O)C4)c3)c2Oc2ccccc2)N1C(=O)C1CC1` (stereo partly drawn) [I-294, 3-{4-[(2S)-1-cyclopropanecarbonyl-2-methyl-5-phenoxy-1,2,3,4-tetrahydroquinolin-6-yl]-1H-pyrazol-1-yl}-1λ^6-thiane-1,1-dione], the IC50 in assay [1] was under 0.5 µM; in assay [2], 0.1 to 1 µM.
As to `C[C@H]1CCc2c(ccc(-c3cnn(C4CCCS(=O)(=O)C4)c3)c2Oc2ccc(F)cc2)N1C(=O)C1CC1` (stereo partly drawn) [I-295, 3-{4-[(2S)-1-cyclopropanecarbonyl-5-(4-fluorophenoxy)-2-methyl-1,2,3,4-tetrahydroquinolin-6-yl]-1H-pyrazol-1-yl}-1λ^6-thiane-1,1-dione], the IC50 in assay [1] was under 0.5 µM; in assay [2] it was 0.1 to 1 µM.
For `COC(=O)N1c2ccc(-c3cnn(C4CCNC(=O)C4)c3)c(OC3CCC3)c2CC[C@@H]1C` (stereo partly drawn) [I-296, (2S)-methyl 5-cyclobutoxy-2-methyl-6-(1-(2-oxopiperidin-4-yl)-1H-pyrazol-4-yl)-3,4-dihydroquinoline-1(2H)-carboxylate] the same measures were under 0.5 µM and 0.1 to 1 µM.
Consider `COC(=O)N1c2ccc(-c3cnn(C4CCNC(=O)C4)c3)c(Oc3ccc(F)cc3)c2CC[C@@H]1C` (stereo partly drawn) [I-297, (2S)-methyl 5-(4-fluorophenoxy)-2-methyl-6-(1-(2-oxopiperidin-4-yl)-1H-pyrazol-4-yl)-3,4-dihydroquinoline-1(2H)-carboxylate], for which the IC50 in assay [1] is under 0.5 µM; in assay [2], 0.1 to 1 µM.
For `COC(=O)N1c2ccc(-c3cnn(C4CNC4C)c3)c(Oc3ccc(F)cc3)c2CC[C@@H]1C` (stereo partly drawn) [I-298, methyl (2S)-5-(4-fluorophenoxy)-2-methyl-6-(1-(2-methylazetidin-3-yl)-1H-pyrazol-4-yl)-3,4-dihydroquinoline-1(2H)-carboxylate] the same measures were under 0.5 µM and 0.1 to 1 µM.
For `COC(=O)N1c2ccc(-c3cnn(C4CNC4C)c3)c(OC3CCC3)c2CC[C@@H]1C` (stereo partly drawn) [I-299, methyl (2S)-5-cyclobutoxy-2-methyl-6-(1-(2-methylazetidin-3-yl)-1H-pyrazol-4-yl)-3,4-dihydroquinoline-1(2H)-carboxylate] the same measures were 0.5 to 1 µM and 1 to 10 µM.
With `C[C@H]1CCc2c(ccc(-c3cnn(C4CC4)c3NS(C)(=O)=O)c2OC2CCC2)N1C(=O)C1CC1` [I-300, N-(4-((2S)-5-cyclobutoxy-1-(cyclopropanecarbonyl)-2-methyl-1,2,3,4-tetrahydroquinolin-6-yl)-1-cyclopropyl-1H-pyrazol-5-yl)methanesulfonamide], the IC50 is over 1 µM in assay [1] and at least 10 µM in assay [2].
Take `CC(=O)Nc1c(-c2ccc3c(c2OC2CCC2)CC[C@H](C)N3C(=O)C2CC2)cnn1C1CC1` [I-301, N-(4-((2S)-5-cyclobutoxy-1-(cyclopropanecarbonyl)-2-methyl-1,2,3,4-tetrahydroquinolin-6-yl)-1-cyclopropyl-1H-pyrazol-5-yl)acetamide]: the IC50 in assay [1] was over 1 µM; in assay [2], 1 to 10 µM.
`COC(=O)N1c2ccc(-c3cnn(C4CC(O)C4)c3)c(OC3CCC3)c2CC[C@@H]1C` (stereo partly drawn) [I-302, (S)-methyl 5-cyclobutoxy-6-(1-(3-hydroxycyclobutyl)-1H-pyrazol-4-yl)-2-methyl-3,4-dihydroquinoline-1(2H)-carboxylate]: the results for the IC50 in assay [1] and in assay [2] were under 0.5 µM and 0.1 to 1 µM, respectively.

The record behind these values is US10611750B2, “Tetrahydroquinoline compositions as bet bromodomain inhibitors” (FORMA Therapeutics, Inc., priority 2013, dated 2020).
